Assay results taken from patent US6677431B2, “Design, preparation, and properties of antibacterial β-peptides” (The Trustees of the University of Pennsylvania, priority 1999, dated 2004).

Columns and labels:
osmY-lux fusion = assay: Stress-induced response assay, induction of osmY-lux fusion; assay type: cell-based; settings: for induction of osmY-lux: Group II peptides; for osmY gene fusion response: Table 4, stress sensed osmotic shock
Experimental: Stress-induced response and growth inhibition assays were carried out on samples of four of the β-peptide and compared to known polycationic peptides.
Polymyxin B was tested both rich, LB, medium and defined, M9, medium. The other natural peptides were tested in LB medium.
The β-peptides were tested in M9 medium. * In LB medium (data from Oh et al. Biochem. Biophys. Acta. 2000,1463: 43-54)
However, similar to the magainins, no induction of the micF-lux fusion was observed. Also, the minimum inhibitory concentrations (MIC's) were determined to be higher than those reported in the published manuscript.
Samples of these β-peptides 1 and 2 were evaluated in the stress-induced response assays.
The biolumenescence data result from test carried out according to U.S. Pat. No. 5,683,868, Highly Sensitive Method For Detecting Environmental Insults, issued Nov. 4, 1997 to LaRossa et al., the entire contents of the disclosure of are hereby incorporated by reference, The tests described in this patent permit antibacterial properties of peptides or any other materials to be assessed. […] Along these lines, FIG. 5 illustrates a relationship between relative light units and minutes of exposure of bacteria to the various materials in the legend. P×B represents polymyxin, a known antibacterial material. In the graph, a decrease in RULs corresponds to a decrease in bacteria. […]

[1] = Peptide binding to phospholipid bilayers by CD, SOPC vesicles; settings: for helix formation on phosphocholin vesicles (POPC and SOPC): CD, model of mammalian cell membrane
[2] = Peptide binding to phospholipid bilayers by CD, SOPS/SOPC (1:9) vesicles; settings: single site binding fit, 42 (peptide 1) or 52 (peptide 2) lipids per peptide
Experimental: The binding affinity of peptides to phospholipid bilayers was measured using CD spectra of the peptide in the presence of varying lipid vesicle concentrations. Peptides show little structure from CD spectra in water. Upon addition of lipid vesicles, the ellipiticity at 214 nm increased as a consequence of helix formation due to interactions between the peptide and lipid surface. Small unilamellar vesicles (SUV) of SOPC/SOPS were prepared by sonicating lipid large vesicles in 10 mM phosphate buffer, pH 7. CD spectra were taken before and after the addition of aliquots of vesicle to 2 mL peptide solution in 10 mM phosphate buffer, pH 7.
The dissociation constant Kd was determined from equation (1) for single site binding:
[P](R−1)−c/n−Kd+c/(nR)=0 (1)
where [P] and c are peptide and lipid molar concentrations, respectively, n is the number of lipids per peptide binding site. R is the fraction of peptide bound, which can be calculated from equation (2): […]
To get better understanding of the binding mechanism of the peptides to lipid membranes, the dissociation constants (Kd) of peptide 1 and peptide 2 to small unilamellar lipid vesicles (SUV) were measured. Since binding to DPC micelle drives peptide 1 and peptide 2 from random coil conformation to helical conformation, the binding equilibrium can be monitored by CD spectroscopy. […]

Row | SMILES | induction of osmY-lux (osmY-lux fusion) | osmY gene fusion response (osmY-lux fusion) | helix formation on phosphocholin vesicles (POPC and SOPC) [1] | Kd [2] [nM] | Kd ([1]; SOPC LUV) [nM]
1 | CC(C)[C@@H](CC(N)=O)NC(=O)C[C@H](CCCCN)NC(=O)C[C@H](C)NC(=O)C[C@@H](NC(=O)C[C@H](CCCCN)NC(=O)C[C@H](C)NC(=O)C[C@@H](NC(=O)C[C@H](CCCCN)NC(=O)C[C@H](C)NC(=O)C[C@@H](NC(=O)C[C@H](CCCCN)NC(=O)C[C@H](C)N)C(C)C)C(C)C)C(C)C [Peptide 1] | induction | yes | does not show any formation of helix | 1400 | 
2 | CC(C)[C@@H](CC(N)=O)NC(=O)C[C@H](CCCCN)NC(=O)C[C@H](C)NC(=O)C[C@@H](NC(=O)C[C@H](CCCCN)NC(=O)C[C@H](C)NC(=O)C[C@@H](NC(=O)C[C@H](CCCCN)NC(=O)C[C@H](C)NC(=O)C[C@@H](NC(=O)C[C@H](CCCCN)NC(=O)C[C@H](C)NC(=O)C[C@@H](NC(=O)C[C@H](CCCCN)NC(=O)C[C@H](C)N)C(C)C)C(C)C)C(C)C)C(C)C [Peptide 2] | induction | yes | shows increase of helix content | 300 | 15000
